The text below walks through data of publication PMC7180948, “New Insights into 4-Anilinoquinazolines as Inhibitors of Cardiac Troponin I–Interacting Kinase (TNNi3K)” (Molecules, 2020).

What all share (experiment): biochemical
Common to all, as to design: KINOMEscan competition binding panel (Eurofins DiscoverX), single concentration, percent inhibition
What all share (conditions): read-out: 15 at 1 µM % inhibition

One assay addresses EPHB6 (Homo sapiens, UniProt O15197). Put shortly:
(§1)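 Compounds were submitted at 1 µM to a KINOMEscan assay covering more than 400 human kinases. The screen served to define the selectivity profile.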

In another assay the target is HIPK4 (Homo sapiens, UniProt Q8NE63). Put shortly:
as §1

In another assay the target is MARK1 (Homo sapiens, UniProt Q9P0L2). Put shortly:
as §1

The target of the next assay is KIT (Homo sapiens, UniProt P10721). The gist of the method: as §1
The target of a further assay is CHEK1 (Homo sapiens, UniProt O14757). Put shortly:
as §1

A further assay deals with EGFR(G719S) (Homo sapiens, UniProt P00533, G719S). Put shortly: as §1
In a further assay the target is T1, MKK7 (Homo sapiens, UniProt O14733).
T1 construct: gene MAP2K7
The gist of the method: as §1

The target in another assay is PIM1 (Homo sapiens, UniProt P11309). The gist of the method:
as §1

The next assay has as its target ULK2 (Homo sapiens, UniProt Q8IYT8). Put shortly: as §1
The next assay has as its target T2, CDC2L1 (Homo sapiens, UniProt P21127).
T2 construct: gene CDK11B
The gist of the method: as §1

The target of a further assay is CAMKK1 (Homo sapiens, UniProt Q8N5S9). Put shortly:
as §1

For the next assay, the target named is FLT3(K663Q) (Homo sapiens, UniProt P36888, K663Q). Put shortly: as §1
Another assay concerns the target EPHA7 (Homo sapiens, UniProt Q15375). The gist of the method: as §1
A further assay has as its target T3, PAK7 (Homo sapiens, UniProt Q9P286).
T3 construct: gene PAK5
The gist of the method: as §1

A further assay addresses BMPR2 (Homo sapiens, UniProt Q13873). The gist of the method: as §1
Another assay has as its target T4, ASK2 (Homo sapiens, UniProt O95382).
T4 construct: gene MAP3K6
The gist of the method:
as §1

A further assay deals with AURKC (Homo sapiens, UniProt Q9UQB9). Put shortly: as §1
Sequence of AURKC (Q9UQB9 whole entry): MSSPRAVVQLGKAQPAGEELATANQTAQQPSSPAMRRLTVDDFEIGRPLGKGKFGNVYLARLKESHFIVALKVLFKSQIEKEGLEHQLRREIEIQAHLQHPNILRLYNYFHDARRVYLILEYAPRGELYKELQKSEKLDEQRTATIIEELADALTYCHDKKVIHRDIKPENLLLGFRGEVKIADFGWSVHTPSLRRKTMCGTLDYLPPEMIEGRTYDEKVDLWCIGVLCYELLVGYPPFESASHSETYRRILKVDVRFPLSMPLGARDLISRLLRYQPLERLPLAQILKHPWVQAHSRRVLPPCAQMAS
The target in a further assay is RET (Homo sapiens, UniProt P07949). Put shortly:
as §1

Another assay has as its target GAK (Homo sapiens, UniProt O14976). The gist of the method:
as §1

In the next assay the target is T5, ERK5 (Homo sapiens, UniProt Q13164).
T5 construct: gene MAPK7
The gist of the method:
as §1

A further assay concerns the target MARK3 (Homo sapiens, UniProt P27448). Put shortly: as §1
The next assay has as its target PAK2 (Homo sapiens, UniProt Q13177). The gist of the method:
as §1

For the next assay, the target named is EGFR(L858R) (Homo sapiens, UniProt P00533, L858R). The gist of the method: as §1
In the next assay the target is FLT1 (Homo sapiens, UniProt P17948). The gist of the method: as §1

Sequence of HIPK4 (Q8NE63 whole entry): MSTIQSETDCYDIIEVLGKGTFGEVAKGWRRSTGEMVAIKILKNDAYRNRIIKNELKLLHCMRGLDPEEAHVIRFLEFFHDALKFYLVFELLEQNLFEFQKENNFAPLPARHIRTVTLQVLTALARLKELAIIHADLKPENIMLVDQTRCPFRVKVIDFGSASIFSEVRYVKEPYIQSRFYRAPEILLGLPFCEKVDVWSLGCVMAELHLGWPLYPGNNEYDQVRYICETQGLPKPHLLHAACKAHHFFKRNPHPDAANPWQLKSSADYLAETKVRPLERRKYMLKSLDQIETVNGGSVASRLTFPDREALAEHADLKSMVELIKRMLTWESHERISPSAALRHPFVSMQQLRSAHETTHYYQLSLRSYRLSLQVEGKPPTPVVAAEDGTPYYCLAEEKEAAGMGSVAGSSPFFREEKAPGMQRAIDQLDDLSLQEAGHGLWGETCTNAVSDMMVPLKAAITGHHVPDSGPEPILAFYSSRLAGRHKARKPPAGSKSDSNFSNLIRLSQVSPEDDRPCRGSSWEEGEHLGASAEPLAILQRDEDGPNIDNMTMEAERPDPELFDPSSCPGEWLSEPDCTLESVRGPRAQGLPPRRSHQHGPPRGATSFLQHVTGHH
Sequence of MARK3 (P27448 whole entry): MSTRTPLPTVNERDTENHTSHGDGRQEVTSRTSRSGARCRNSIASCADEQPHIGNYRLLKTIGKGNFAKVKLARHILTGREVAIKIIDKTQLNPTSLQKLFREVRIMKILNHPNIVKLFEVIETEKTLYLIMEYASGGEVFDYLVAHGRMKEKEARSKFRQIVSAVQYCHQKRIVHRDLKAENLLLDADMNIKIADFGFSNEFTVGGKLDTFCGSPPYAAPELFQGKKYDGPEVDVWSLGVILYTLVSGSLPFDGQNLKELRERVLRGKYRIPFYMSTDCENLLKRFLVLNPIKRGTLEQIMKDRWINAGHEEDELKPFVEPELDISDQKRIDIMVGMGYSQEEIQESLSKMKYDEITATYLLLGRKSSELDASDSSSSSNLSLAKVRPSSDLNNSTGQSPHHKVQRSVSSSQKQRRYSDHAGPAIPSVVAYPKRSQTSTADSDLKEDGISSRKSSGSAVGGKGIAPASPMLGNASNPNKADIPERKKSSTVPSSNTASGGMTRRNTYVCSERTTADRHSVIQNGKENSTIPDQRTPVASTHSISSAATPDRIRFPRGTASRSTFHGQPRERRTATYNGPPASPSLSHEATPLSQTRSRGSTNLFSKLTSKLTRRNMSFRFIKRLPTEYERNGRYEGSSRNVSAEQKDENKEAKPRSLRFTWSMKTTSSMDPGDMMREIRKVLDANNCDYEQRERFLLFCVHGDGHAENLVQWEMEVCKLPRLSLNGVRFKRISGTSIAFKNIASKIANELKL
Sequence of RET (P07949 whole entry): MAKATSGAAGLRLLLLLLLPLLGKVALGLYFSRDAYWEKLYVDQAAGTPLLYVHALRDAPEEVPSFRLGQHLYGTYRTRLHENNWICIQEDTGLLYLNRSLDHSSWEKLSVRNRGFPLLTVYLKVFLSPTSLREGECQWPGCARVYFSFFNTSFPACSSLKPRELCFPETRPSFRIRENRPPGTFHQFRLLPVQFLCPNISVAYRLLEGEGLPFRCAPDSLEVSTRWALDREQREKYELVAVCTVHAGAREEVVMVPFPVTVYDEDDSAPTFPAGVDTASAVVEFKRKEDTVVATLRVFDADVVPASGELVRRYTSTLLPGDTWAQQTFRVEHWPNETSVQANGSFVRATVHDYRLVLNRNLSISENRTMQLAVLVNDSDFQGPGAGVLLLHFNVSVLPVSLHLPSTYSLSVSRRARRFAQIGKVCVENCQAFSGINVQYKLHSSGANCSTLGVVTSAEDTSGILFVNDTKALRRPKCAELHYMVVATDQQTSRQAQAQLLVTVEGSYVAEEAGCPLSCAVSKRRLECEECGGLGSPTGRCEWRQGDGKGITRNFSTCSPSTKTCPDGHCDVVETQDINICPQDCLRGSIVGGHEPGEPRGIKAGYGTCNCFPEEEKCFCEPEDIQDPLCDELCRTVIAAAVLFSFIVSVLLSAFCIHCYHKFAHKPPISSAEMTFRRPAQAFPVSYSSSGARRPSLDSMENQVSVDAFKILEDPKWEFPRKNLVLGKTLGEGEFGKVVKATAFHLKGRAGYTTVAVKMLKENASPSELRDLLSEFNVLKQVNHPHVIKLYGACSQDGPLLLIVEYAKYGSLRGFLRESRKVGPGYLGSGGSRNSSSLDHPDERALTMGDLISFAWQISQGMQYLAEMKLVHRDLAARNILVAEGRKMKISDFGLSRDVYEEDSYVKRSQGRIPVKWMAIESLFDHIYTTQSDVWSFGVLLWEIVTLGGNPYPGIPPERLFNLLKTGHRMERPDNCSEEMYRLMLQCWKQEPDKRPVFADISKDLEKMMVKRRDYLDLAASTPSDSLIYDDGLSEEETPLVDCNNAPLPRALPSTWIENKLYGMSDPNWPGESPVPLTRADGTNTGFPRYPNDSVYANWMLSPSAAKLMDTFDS
T2 sequence (P21127 whole entry): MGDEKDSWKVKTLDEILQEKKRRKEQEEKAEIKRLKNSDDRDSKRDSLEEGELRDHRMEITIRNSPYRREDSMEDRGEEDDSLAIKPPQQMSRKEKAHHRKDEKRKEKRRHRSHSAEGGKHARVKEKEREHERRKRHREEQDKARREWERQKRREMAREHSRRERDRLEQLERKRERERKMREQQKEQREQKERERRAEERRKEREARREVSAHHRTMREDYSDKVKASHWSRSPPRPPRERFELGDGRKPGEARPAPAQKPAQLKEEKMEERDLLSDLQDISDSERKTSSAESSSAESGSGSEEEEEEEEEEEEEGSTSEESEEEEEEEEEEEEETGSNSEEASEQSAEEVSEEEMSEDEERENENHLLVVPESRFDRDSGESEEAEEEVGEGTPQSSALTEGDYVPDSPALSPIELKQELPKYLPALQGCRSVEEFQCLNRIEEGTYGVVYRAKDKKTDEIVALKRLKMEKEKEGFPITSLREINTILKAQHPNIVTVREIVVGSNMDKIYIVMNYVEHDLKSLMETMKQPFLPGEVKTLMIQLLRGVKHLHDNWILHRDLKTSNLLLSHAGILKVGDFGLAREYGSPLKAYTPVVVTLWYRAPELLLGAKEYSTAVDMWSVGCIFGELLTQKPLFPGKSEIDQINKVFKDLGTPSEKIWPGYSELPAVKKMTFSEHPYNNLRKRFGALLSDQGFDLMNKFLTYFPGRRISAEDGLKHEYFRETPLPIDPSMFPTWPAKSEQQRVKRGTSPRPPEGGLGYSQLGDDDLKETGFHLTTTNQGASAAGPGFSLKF
Sequence of EPHA7 (Q15375 whole entry): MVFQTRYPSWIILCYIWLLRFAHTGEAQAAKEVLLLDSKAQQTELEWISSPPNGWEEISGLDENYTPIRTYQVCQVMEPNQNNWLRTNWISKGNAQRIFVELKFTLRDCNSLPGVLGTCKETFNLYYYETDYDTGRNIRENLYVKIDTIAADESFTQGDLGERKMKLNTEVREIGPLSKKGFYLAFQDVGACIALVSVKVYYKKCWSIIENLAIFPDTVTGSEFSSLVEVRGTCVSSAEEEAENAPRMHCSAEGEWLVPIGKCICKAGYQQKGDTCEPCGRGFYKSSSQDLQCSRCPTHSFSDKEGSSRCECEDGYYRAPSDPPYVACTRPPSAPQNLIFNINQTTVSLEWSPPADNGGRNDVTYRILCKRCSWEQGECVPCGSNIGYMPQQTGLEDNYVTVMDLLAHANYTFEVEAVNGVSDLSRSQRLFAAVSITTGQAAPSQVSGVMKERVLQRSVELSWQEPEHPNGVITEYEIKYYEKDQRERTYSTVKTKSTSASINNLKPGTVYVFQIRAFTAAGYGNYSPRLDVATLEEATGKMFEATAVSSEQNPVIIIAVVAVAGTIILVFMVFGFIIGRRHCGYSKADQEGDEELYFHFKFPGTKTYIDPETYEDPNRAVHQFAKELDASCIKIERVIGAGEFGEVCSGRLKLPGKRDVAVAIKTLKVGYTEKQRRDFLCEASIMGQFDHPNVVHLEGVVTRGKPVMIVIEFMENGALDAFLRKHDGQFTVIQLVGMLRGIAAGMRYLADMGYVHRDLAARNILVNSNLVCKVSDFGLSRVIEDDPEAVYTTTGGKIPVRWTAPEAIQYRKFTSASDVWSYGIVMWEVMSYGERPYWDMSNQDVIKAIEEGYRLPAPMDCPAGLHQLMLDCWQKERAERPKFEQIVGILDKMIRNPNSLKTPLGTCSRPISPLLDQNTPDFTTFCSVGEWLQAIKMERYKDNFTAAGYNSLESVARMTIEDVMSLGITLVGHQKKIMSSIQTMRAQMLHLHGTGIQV
Sequence of PIM1 (P11309 whole entry): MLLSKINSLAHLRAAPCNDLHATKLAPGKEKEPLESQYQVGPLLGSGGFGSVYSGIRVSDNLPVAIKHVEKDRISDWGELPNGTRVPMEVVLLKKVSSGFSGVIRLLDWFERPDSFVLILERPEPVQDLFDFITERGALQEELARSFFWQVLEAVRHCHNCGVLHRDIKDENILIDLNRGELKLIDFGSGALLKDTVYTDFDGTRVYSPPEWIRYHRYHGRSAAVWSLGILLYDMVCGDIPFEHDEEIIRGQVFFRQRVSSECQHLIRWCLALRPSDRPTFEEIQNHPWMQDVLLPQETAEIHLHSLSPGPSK

A word on the inhibition: it is the share of the control response that was lost under treatment. Consider `CNS(=O)(=O)c1ccc(N(C)C)c(Nc2nc(C)nc3cc(OC)c(OC)cc23)c1` [compound 15, 3-((6,7-dimethoxy-2-methylquinazolin-4-yl)amino)-4-(dimethylamino)-N-methylbenzenesulfonamide], for which the inhibition at 1 µM at EPHB6 stood at 0%; at HIPK4 it was 0%; at MARK1, 0%; on KIT it was 10%; on CHEK1, 1%; on EGFR(G719S) it was 0%. Moreover, the inhibition at 1 µM at MKK7 was 30%; at PIM1, 2%; on ULK2, 9%; on CDC2L1 it was 7%; on CAMKK1, 2%; on FLT3(K663Q), 10%. In addition, the inhibition at 1 µM at EPHA7 came out at 27%; on PAK7, 0%; on BMPR2, 21%; on ASK2, 0%; at AURKC, 0%; at RET, 0%. For the same molecule, the inhibition at 1 µM at GAK stood at 78%; at ERK5, 5%; at MARK3, 0%; at PAK2, 14%; on EGFR(L858R), 4%; at FLT1, 0%.
